Assay [1] addresses T1, Beta-secretase 1 (Homo sapiens, UniProt P56817). In words: Inhibitory activity against beta-secretase 1 (BACE1) at 0.2 uM.
For assay [2], the target named is T1, Beta-secretase 1. In words: Inhibitory activity against beta-secretase 1 (BACE1) at 2 uM.
In assay [3] the target is T1, Beta-secretase 1. In words: Inhibitory activity against beta-secretase 1 (BACE1).

pIC50: −log10 of the molar value. Numbered stars: 1 amine (or outer) side, 2 acyl side, 3 side chain; on linkers, the order of the positions; unused ones are H or OH. Square brackets hold non-standard residues; d marks the D form. Peptide text beside a SMILES is read from it. * marks the point of attachment. β3hPhe(2R-OH) = O=C([C@H](O)[C@H](Cc1ccccc1)N[*:1])[*:2]; Tetrazole5carbonyl = O=C(c1nn[nH]n1)*; Oxalyl = O=C(C(=O)[*:2])[*:1]; Dap = NC[C@H](N)C(=O)O

T1 sequence (P56817 whole entry): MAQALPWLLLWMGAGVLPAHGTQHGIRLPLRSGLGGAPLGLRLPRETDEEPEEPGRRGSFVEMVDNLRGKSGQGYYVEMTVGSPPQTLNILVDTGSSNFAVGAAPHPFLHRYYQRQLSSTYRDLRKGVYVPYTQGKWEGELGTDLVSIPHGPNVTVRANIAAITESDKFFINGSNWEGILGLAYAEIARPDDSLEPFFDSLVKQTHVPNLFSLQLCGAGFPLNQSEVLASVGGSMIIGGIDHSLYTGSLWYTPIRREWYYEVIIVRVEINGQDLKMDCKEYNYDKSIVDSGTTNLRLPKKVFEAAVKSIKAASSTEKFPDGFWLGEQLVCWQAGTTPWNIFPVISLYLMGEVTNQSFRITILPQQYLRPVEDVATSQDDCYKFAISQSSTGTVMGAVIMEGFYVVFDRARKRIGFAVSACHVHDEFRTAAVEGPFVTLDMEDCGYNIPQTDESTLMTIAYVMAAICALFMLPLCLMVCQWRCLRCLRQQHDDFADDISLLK

Usually inhibition stands for the percentage by which the read-out fell short of the control. High values mean strong suppression, low ones little suppression. Consider `CC(C)C[C@H](NC(=O)[C@@H](NC(=O)[C@@H](N)CNC(=O)c1nn[nH]n1)C(C)C)C(=O)N[C@@H](Cc1ccccc1)[C@@H](O)C(=O)Nc1cc(C(=O)O)cc(C(=O)O)c1`, for which the inhibition stood at 98.1% in assay [1] and 100% in assay [2]. For the compound `CC(C)C[C@H](NC(=O)[C@@H](NC(=O)[C@H](CN)NC(=O)C(=O)O)C(C)C)C(=O)N[C@@H](Cc1ccccc1)[C@@H](O)C(=O)N[C@@H](CC(=O)O)C(=O)N[C@@H](C)C(=O)N[C@@H](CCC(=O)O)C(=O)O` (Oxalyl-[Dap]VL[β3hPhe(2R-OH)]DAE-OH), the inhibition in assay [2] turned out to be 75.2%. As to `CC(C)C[C@H](NC(=O)[C@@H](NC(=O)[C@@H](N)CNC(=O)c1nn[nH]n1)C(C)C)C(=O)N[C@@H](Cc1ccccc1)[C@@H](O)C(=O)Nc1cccc(C(=O)O)c1`, the inhibition in assay [1] is 87.1%; in assay [2], 99%. One may read the pIC50 as the negative decadic logarithm of the IC50, by convention in mol/L. Low values mean a large IC50, high ones a small IC50. Compound `CC(C)C[C@H](NC(=O)[C@@H](NC(=O)[C@@H](N)CNC(=O)c1nnn[nH]1)C(C)C)C(=O)N[C@@H](Cc1ccccc1)[C@@H](O)C(=O)Nc1cccc(C(=O)O)c1` showed a pIC50 in assay [3] of 8.09. Take `CC(C)C[C@H](NC(=O)[C@@H](NC(=O)[C@H](CN)NC(=O)C(=O)O)C(C)C)C(=O)N[C@@H](Cc1ccccc1)[C@@H](O)C(=O)Nc1cccc(C(=O)O)c1`: the inhibition worked out at 58.6% in assay [1] and 87.9% in assay [2]. `CC(C)C[C@H](NC(=O)[C@@H](NC(=O)[C@@H](N)CNC(=O)c1nnn[nH]1)C(C)C)C(=O)N[C@@H](Cc1ccccc1)[C@@H](O)C(=O)Nc1cc(C(=O)O)cc(C(=O)O)c1` showed a pIC50 in assay [3] of 8.41. With `CC(C)C[C@H](NC(=O)[C@@H](NC(=O)[C@@H](N)CNC(=O)C(=O)O)C(C)C)C(=O)N[C@@H](Cc1ccccc1)[C@@H](O)C(=O)Nc1cc(C(=O)O)cc(C(=O)O)c1`, the pIC50 in assay [3] was 8.33. Moreover, the inhibition in assay [1] came out at 96.7%; in assay [2], 99.8%.

As for `CC(C)C[C@H](NC(=O)[C@@H](NC(=O)[C@H](CN)NC(=O)c1nn[nH]n1)C(C)C)C(=O)N[C@@H](Cc1ccccc1)[C@@H](O)C(=O)N[C@@H](CC(=O)O)C(=O)N[C@@H](C)C(=O)N[C@@H](CCC(=O)O)C(=O)O` (Tetrazole5carbonyl-[Dap]VL[β3hPhe(2R-OH)]DAE-OH), the inhibition in assay [2] was 23.2%. Still for that read-out and setting: next, `CC(C)C[C@H](NC(=O)[C@@H](NC(=O)[C@H](CN)NC(=O)c1nn[nH]n1)C(C)C)C(=O)N[C@@H](Cc1ccccc1)[C@@H](O)C(=O)Nc1cccc(C(=O)O)c1`: 0%.

As for `CC(C)C[C@H](NC(=O)[C@@H](NC(=O)[C@@H](N)CNC(=O)c1nn[nH]n1)C(C)C)C(=O)N[C@@H](Cc1ccccc1)[C@@H](O)C(=O)N[C@@H](CC(=O)O)C(=O)N[C@@H](C)C(=O)N[C@@H](CCC(=O)O)C(=O)O` (H-[Dap](Tetrazole5carbonyl)VL[β3hPhe(2R-OH)]DAE-OH), the inhibition was 73.1% in assay [1] and 93% in assay [2]. In assay [3], `CC(C)C[C@H](NC(=O)[C@@H](NC(=O)[C@@H](N)CNC(=O)C(=O)O)C(C)C)C(=O)N[C@@H](Cc1ccccc1)[C@@H](O)C(=O)Nc1cccc(C(=O)O)c1` had a pIC50 of 7.80. For the same compound, the inhibition in assay [1] worked out at 85.5%; in assay [2], 98.4%. For `CC(C)C[C@H](NC(=O)[C@@H](NC(=O)[C@@H](N)CNC(=O)C(=O)O)C(C)C)C(=O)N[C@@H](Cc1ccccc1)[C@@H](O)C(=O)N[C@@H](CC(=O)O)C(=O)N[C@@H](C)C(=O)N[C@@H](CCC(=O)O)C(=O)O` (H-[Dap](Oxalyl)VL[β3hPhe(2R-OH)]DAE-OH) the same measures were 7.08, 57.6% and 96.7%.

These data come from ChEMBL document CHEMBL1145220, “Design and synthesis of highly active Alzheimer's beta-secretase (BACE1) inhibitors, KMI-420 and KMI-429, with enhanced chemical stability” (Bioorg Med Chem Lett, 2005).
